Measurements published in PubChem BioAssay AID1259407 (Chemical Carcinogenesis Research Information System (CCRIS), 2018).
Activity calls are given as the source filed them. No rule for the calls is given here.

Tested on: CCRIS mutagenicity, Ames/micronucleus/aberration tests
Assay: CCRIS mutagenicity studies
[1] = Test System: AMES SALMONELLA TYPHIMURIUM, Strain/Indicator: TA98, Metabolic Activation: NONE, Method: PREINCUBATION
[2] = Test System: AMES SALMONELLA TYPHIMURIUM, Strain/Indicator: TA98, Metabolic Activation: NONE, Method: STANDARD PLATE
[3] = Test System: AMES SALMONELLA TYPHIMURIUM, Strain/Indicator: TA100, Metabolic Activation: NONE, Method: PREINCUBATION
[4] = Test System: AMES SALMONELLA TYPHIMURIUM, Strain/Indicator: TA100, Metabolic Activation: NONE, Method: STANDARD PLATE
[5] = Test System: AMES SALMONELLA TYPHIMURIUM, Strain/Indicator: TA1535, Metabolic Activation: NONE, Method: PREINCUBATION
[6] = Test System: AMES SALMONELLA TYPHIMURIUM, Strain/Indicator: TA1535, Metabolic Activation: NONE, Method: STANDARD PLATE

Q: Which mutagenic call (Test System: AMES SALMONELLA TYPHIMURIUM, Strain/Indicator: TA97, Metabolic Activation: HAMSTER, LIVER, S-9, AROCLOR 1254 (10 OR 30%), Method: PREINCUBATION) does the source give for C[C@]12C/C(=C/O)C(=O)C[C@@H]1CC[C@@H]1[C@@H]2CC[C@@]2(C)[C@H]1CC[C@]2(C)O here?
A: inactive; negative

Q: And the mutagenic call (Test System: AMES SALMONELLA TYPHIMURIUM, Strain/Indicator: TA97, Metabolic Activation: NONE, Method: PREINCUBATION)?
A: inactive; negative

Q: And the mutagenic call (Test System: AMES SALMONELLA TYPHIMURIUM, Strain/Indicator: TA97, Metabolic Activation: RAT, LIVER, S-9, AROCLOR 1254 (10 OR 30%), Method: PREINCUBATION)?
A: inactive; negative

Q: What about the mutagenic call (Test System: AMES SALMONELLA TYPHIMURIUM, Strain/Indicator: TA98, Metabolic Activation: HAMSTER, LIVER, S-9, AROCLOR 1254 (10 OR 30%), Method: PREINCUBATION) of the same molecule?
A: inactive; negative

Q: What about the mutagenic call [1] of the same molecule?
A: inactive; negative

Q: What about the mutagenic call [2] of the same molecule?
A: inactive; negative

Q: And the mutagenic call (Test System: AMES SALMONELLA TYPHIMURIUM, Strain/Indicator: TA98, Metabolic Activation: RAT LIVER S-9, AROCLOR 1254, 10%, Method: STANDARD PLATE)?
A: inactive; negative

Q: What about the mutagenic call (Test System: AMES SALMONELLA TYPHIMURIUM, Strain/Indicator: TA98, Metabolic Activation: RAT, LIVER, S-9, AROCLOR 1254 (10 OR 30%), Method: PREINCUBATION) of the same molecule?
A: inactive; negative

Q: And the mutagenic call (Test System: AMES SALMONELLA TYPHIMURIUM, Strain/Indicator: TA100, Metabolic Activation: HAMSTER, LIVER, S-9, AROCLOR 1254 (10 OR 30%), Method: PREINCUBATION)?
A: inactive; negative

Q: What about the mutagenic call [3] of the same molecule?
A: inactive; negative

Q: And the mutagenic call [4]?
A: inactive; negative

Q: And the mutagenic call (Test System: AMES SALMONELLA TYPHIMURIUM, Strain/Indicator: TA100, Metabolic Activation: RAT LIVER S-9, AROCLOR 1254, 10%, Method: STANDARD PLATE)?
A: inactive; negative

Q: And the mutagenic call (Test System: AMES SALMONELLA TYPHIMURIUM, Strain/Indicator: TA100, Metabolic Activation: RAT, LIVER, S-9, AROCLOR 1254 (10 OR 30%), Method: PREINCUBATION)?
A: inactive; negative

Q: And the mutagenic call (Test System: AMES SALMONELLA TYPHIMURIUM, Strain/Indicator: TA1535, Metabolic Activation: HAMSTER, LIVER, S-9, AROCLOR 1254 (10 OR 30%), Method: PREINCUBATION)?
A: inactive; negative

Q: What about the mutagenic call [5] of the same molecule?
A: inactive; negative

Q: What about the mutagenic call [6] of the same molecule?
A: inactive; negative

Q: And the mutagenic call (Test System: AMES SALMONELLA TYPHIMURIUM, Strain/Indicator: TA1535, Metabolic Activation: RAT LIVER S-9, AROCLOR 1254, 10%, Method: STANDARD PLATE)?
A: inactive; negative

Q: What about the mutagenic call (Test System: AMES SALMONELLA TYPHIMURIUM, Strain/Indicator: TA1535, Metabolic Activation: RAT, LIVER, S-9, AROCLOR 1254 (10 OR 30%), Method: PREINCUBATION) of the same molecule?
A: inactive; negative

Q: What about the mutagenic call (Test System: AMES SALMONELLA TYPHIMURIUM, Strain/Indicator: TA1537, Metabolic Activation: NONE, Method: STANDARD PLATE) of the same molecule?
A: inactive; negative

Q: And the mutagenic call (Test System: AMES SALMONELLA TYPHIMURIUM, Strain/Indicator: TA1537, Metabolic Activation: RAT LIVER S-9, AROCLOR 1254, 10%, Method: STANDARD PLATE)?
A: inactive; negative

Q: What about the mutagenic call (Test System: ESCHERICHIA COLI, Strain/Indicator: WP2 UVRA, Metabolic Activation: NONE, Method: STANDARD PLATE) of the same molecule?
A: inactive; negative

Q: And the mutagenic call (Test System: ESCHERICHIA COLI, Strain/Indicator: WP2 UVRA, Metabolic Activation: RAT LIVER S-9, AROCLOR 1254, 10%, Method: STANDARD/PLATE)?
A: inactive; negative

Q: And the mutagenic call (Test System: MOUSE LYMPHOMA, Strain/Indicator: L5178Y (TK+/TK-), Metabolic Activation: NONE, Method: SUSPENSION PLATE)?
A: inactive; negative

Q: What about the mutagenic call (Test System: MOUSE LYMPHOMA, Strain/Indicator: L5178Y (TK+/TK-), Metabolic Activation: RAT LIVER S-9, AROCLOR 1254, 3%, NADP, ISOCITRATE, Method: SUSPENSION/PLATE) of the same molecule?
A: inactive; negative

Q: Which mutagenic call [4] does the source give for c1ccc(COC[C@H]2CO2)cc1 here?
A: active; positive

Q: What does the source list for O=C1C=Cc2ccc3c(ccc4ccccc43)c2C1=O?
A: mutagenic call [2]: inactive; negative; mutagenic call (Test System: AMES SALMONELLA TYPHIMURIUM, Strain/Indicator: TA100, Metabolic Activation: RAT, LIVER, S-9, AROCLOR 1254, Method: STANDARD PLATE): active; positive

Q: Which mutagenic call (Test System: AMES SALMONELLA TYPHIMURIUM, Strain/Indicator: TA100, Metabolic Activation: RAT, INTACT HEPATOCYTES, AROCLOR 1254, Method: PREINCUBATION) does the source give for Cc1cc2ccc3cc4ccccc4c4ccc(c1)c2c34 here?
A: active; positive

Q: What about the mutagenic call (Test System: AMES SALMONELLA TYPHIMURIUM, Strain/Indicator: TA100, Metabolic Activation: RAT, NADPH-FORTIFIED HOMOGENIZED HEPATOCYTES, AROCLOR 1254, Method: PREINCUBATION) of the same molecule?
A: active; positive

Q: Which mutagenic call (End Point: In vitro micronucleus, Test System: Chinese Hamster Ovary (CHO-WBL) cells, Metabolic Activation: None) does the source give for CCCCOS(=O)(=O)OCCCC here?
A: active; positive (p<0.01)

Q: For COc1ccc(OC)cc1, which mutagenic call (Test System: AMES SALMONELLA TYPHIMURIUM, Strain/Indicator: TA98, Metabolic Activation: HAMSTER, LIVER, S-9, AROCLOR 1254, Method: PREINCUBATION) is on record?
A: inactive; negative

Q: What about the mutagenic call [1] of the same molecule?
A: inactive; negative

Q: And the mutagenic call (Test System: AMES SALMONELLA TYPHIMURIUM, Strain/Indicator: TA98, Metabolic Activation: RAT, LIVER, S-9, AROCLOR 1254, Method: PREINCUBATION)?
A: inactive; negative

Q: And the mutagenic call (Test System: AMES SALMONELLA TYPHIMURIUM, Strain/Indicator: TA100, Metabolic Activation: HAMSTER, LIVER, S-9, AROCLOR 1254, Method: PREINCUBATION)?
A: inactive; negative

Q: And the mutagenic call [3]?
A: inactive; negative

Q: What about the mutagenic call (Test System: AMES SALMONELLA TYPHIMURIUM, Strain/Indicator: TA100, Metabolic Activation: RAT, LIVER, S-9, AROCLOR 1254, Method: PREINCUBATION) of the same molecule?
A: inactive; negative

Q: And the mutagenic call (Test System: AMES SALMONELLA TYPHIMURIUM, Strain/Indicator: TA1535, Metabolic Activation: HAMSTER, LIVER, S-9, AROCLOR 1254, Method: PREINCUBATION)?
A: inactive; negative

Q: What about the mutagenic call [5] of the same molecule?
A: inactive; negative

Q: What about the mutagenic call (Test System: AMES SALMONELLA TYPHIMURIUM, Strain/Indicator: TA1535, Metabolic Activation: RAT, LIVER, S-9, AROCLOR 1254, Method: PREINCUBATION) of the same molecule?
A: inactive; negative

Q: And the mutagenic call (Test System: AMES SALMONELLA TYPHIMURIUM, Strain/Indicator: TA1537, Metabolic Activation: HAMSTER, LIVER, S-9, AROCLOR 1254, Method: PREINCUBATION)?
A: inactive; negative

Q: What about the mutagenic call (Test System: AMES SALMONELLA TYPHIMURIUM, Strain/Indicator: TA1537, Metabolic Activation: NONE, Method: PREINCUBATION) of the same molecule?
A: inactive; negative

Q: And the mutagenic call (Test System: AMES SALMONELLA TYPHIMURIUM, Strain/Indicator: TA1537, Metabolic Activation: RAT, LIVER, S-9, AROCLOR 1254, Method: PREINCUBATION)?
A: inactive; negative

Q: What does the source list for OCC(O)CN1CCN(c2ccccc2)CC1 (stereo unspecified)?
A: mutagenic call (Test System: CHINESE HAMSTER V-79, Strain/Indicator: V-79/6-THIOGUANINE, Metabolic Activation: NONE): inactive; negative; mutagenic call (Test System: CHINESE HAMSTER V-79, Strain/Indicator: V-79/6-THIOGUANINE, Metabolic Activation: S-9): inactive; negative

Q: Which results are given for NCCCNCCCCN(CCCN)/[N+]([O-])=N/O?
A: mutagenic call [5]: active; positive; mutagenic call [6]: active; positive; mutagenic call (Test System: CHINESE HAMSTER OVARY, Strain/Indicator: CHO-K1-BH4 (HGPRT)/6-THIOGUANINE, Metabolic Activation: NONE): active; positive; mutagenic call (Test System: E. COLI, Strain/Indicator: WP2 UVRA (PKM101), Metabolic Activation: NONE, Method: STANDARD PLATE): active; positive; mutagenic call (Test System: E. COLI, Strain/Indicator: WP2 UVRA/OXYR (PKM101), Metabolic Activation: NONE, Method: STANDARD PLATE): active; positive; mutagenic call (Test System: E. COLI, Strain/Indicator: WP2 UVRA/UMUDC, Metabolic Activation: NONE, Method: STANDARD PLATE): active; positive; mutagenic call (Test System: E. COLI, Strain/Indicator: WP2 UVRA, Metabolic Activation: NONE, Method: STANDARD PLATE): active; positive; mutagenic call (Test System: MOUSE LYMPHOMA, Strain/Indicator: L5178Y (TK+/TK-), Metabolic Activation: NONE, Method: SUSPENSION/PLATE): active; positive

Q: COc1ccc(-c2nc(-c3ccc(OC)cc3)c(-c3ccc(OC)cc3)[nH]2)cc1 was tested. Which mutagenic call [2] did it give?
A: active; positive

Q: What about the mutagenic call (Test System: AMES SALMONELLA TYPHIMURIUM, Strain/Indicator: TA98, Metabolic Activation: RAT LIVER S-9, 3-METHYLCHOLANTHRENE, SODIUM PHENOBARBITAL, Method: STANDARD PLATE) of the same molecule?
A: inactive; negative

Q: And the mutagenic call [4]?
A: inactive; negative

Q: What about the mutagenic call (Test System: AMES SALMONELLA TYPHIMURIUM, Strain/Indicator: TA100, Metabolic Activation: RAT LIVER S-9, 3-METHYLCHOLANTHRENE, SODIUM PHENOBARBITAL, Method: STANDARD PLATE) of the same molecule?
A: inactive; negative
